Data reported in patent publication US5942522A, “Antiviral compounds and antihypertensive compounds” (Schering Corporation, priority 1997, dated 1999).
pIC50: −log10 of the molar value. Converted amounts (≈) assume the structure as drawn. Where two headings read alike, the source gives them in different places.

Experiments:
HSV-2 (strain MS) = assay: HSV-β-Gal assay: transient expression of beta galactosidase in transfected HeLa cells superinfected with HSV-2; format: cell-based; conditions: 24 h
Description: (§1) HeLa and Vero cell cultures were maintained in Eagles Minimal Essential Medium (EMEM) which was supplemented with glutamine, penicillin, streptomycin and 10% fetal calf serum (10% EMEM). Stock cultures of HSV-2 (strain MS available from ATCC VR-540) were grown in and harvested from Vero cells. Viral stocks were titered in Vero cells according to established procedures.
Plasmid pON 245^ori- contains the promoter of the HSV-1 thymidine kinase (tk) gene located immediately 5'of the E. coli lac Z gene. In this arrangement, the tk promoter controls transcription from the bacterial gene in transient expression assays. Additionally, an SV40 polyadenylation signal is present at the 3' end of the lac Z gene to allow for the efficient translation of the mRNA in eucaryotic cells. The expression of beta galactosidase in a transient assay using pON 245^ori- is dependent upon superinfection of the transfected cells with HSV. […] For example see U.S. application Ser. No. 07/435,491 filed Sep. 5, 1989, the disclosure of which is incorporated herein by reference thereto.
HeLa cells were seeded into 96 well microtiter plates and allowed to grow to 80% confluency (approximately 35000 cells/well). One half microgram of plasmid pON 245^ori- DNA was introduced into the cells of each well by the […] precipitation technique (Grahman and Van der Eb, 1973). Four to six hours later, the cells were rinsed with hank's Balanced Salt Solution (HBSS), overlaid with 10% EMEM and incubated at 37° C. At 24 hours post-transfection, cells were rinsed, overlaid with 10% EMEM again and re-incubated at 37° C. At 48 hours post-transfection, cells were rinsed and overlaid with either EMEM containing 2% fetal calf serum (2% EMEM), 2% EMEM containing HSV-2 (strain MS, Multiplicity of Infection [moi]=5 pfu/cell) or 2% EMEM containing HSV-2 and the appropriate concentration of Schering compound to be tested. Twenty-four hours later, the cells were harvested and assayed for beta galactosidase activity as described below.
All determinations of beta galactosidase activity were performed in 96 well microtiter plates. The intracellular level of beta galactosidase activity in each well was determined from cell lysates of the monolayer cultures. Aliquots were assayed by incubation in the presence of beta galactosidase substrate, 4-methylumbelliferyl-β-D-galactoside (MUG, 125 ug/ml, Sigma), for 2 hours. The generation of fluorescent product was quantified on a Microfluor microfluorimeter (Dynatech) after addition of 0.1M glycine, pH 10.3 (Spaete and Mocarski, 1985). The inhibitory activity of a compound was plotted versus the concentration and an IC50 value (the concentration of compound required to reduce beta glactosidase expression by 50%) was obtained for each compound tested.

[1] = Compound toxicity assay: inhibition of HeLa cell translation (3H-leucine incorporation); format: cell-based; conditions: human; Table II; HeLa cells; read-out: Cytotoxicity 3H-LEU assay IC50
Description: as §1
HeLa cells were treated with inhibitory compound for 24 hours, after which levels of translational activity were assayed.
For assay of translational activity, HeLa cultures were grown to 80% confluency in 96 well microtiter plates, treated with appropriate concentrations of compound in 2% EMEM during an overnight incubation at 37° C., then rinsed with HBSS and overlaid with […] of 2% EMEM containing 8 uCi of tritiated leucine (^3 H-LEU, […], Amersham Corp., Arlington Heights, Ill.). After a 1 hour incubation at 36.5°C., the cells were rinsed twice with phosphate buffered saline (PBS) and lysed in 400 ul/well of 1×PBS, 0.5% sodium dodecyl sulphate (SDS). After a 10 min incubation at 36.5° C., the contents of the well were transferred to a well in a Millititer HA microfiltration plate (Millipore Corp., Bedford, Mass.). The TCA insoluble proteins were precipitated onto the filter disc by a 10 min fixation with 5% TCA, followed by filtration under vacuum and three 10 minute rinses with 95% ethanol. The filters were dried at room temperature, cut from the milltitier plate and transferred to scintillation vials. TCA precipitable counts were assayed in 5 ml of Scintisol (Isolab, Akron, Ohio). The inhibitory activity of a compound was plotted versus the concentration and an IC50 value (that concentration of the compound required to decrease cellular translational activity by 50%) was derived for each compound.

[2] = Blood pressure in conscious spontaneously hypertensive rats (SHR); format: in vivo
Description: The ability of the compounds to lower blood pressure can be assessed in vivo in conscious spontaneously hypertensive rats (SHR). SHR are purchased from Taconic Farms, Germantown, N.Y. and are approximately 16-18 weeks old when anesthetized with ether. The caudal ventral tail) artery is cannulated with polyethylene tubing (PE50) and blood pressure and heart rate are recorded as described by Baum, T. et. al, J. Cardiovasc. Pharmacol. Vol 5, pp. 665-667, (1983). Rats are placed into pastic cylindrical cages where they rapidly recover consciousness. Blood pressure and heart rate are allowed to stabilize for approximately 90 minutes prior to compound administration. Compounds are administered orally as solutions or suspensions in 0.4% aqueous methylcellulose vehicle via a feeding needle. The compound or 0.4% aqueous methylcellulose vehicle are given in a volume of 4 ml/kg to SHRs that had been fasted overnight. Alternatively,compounds are administered intravenously. The compound is solubilized with a minimum amount of an organic solvent such as ethanol or dimethylsulfoxide and given in physiological saline. Activity is expressed as the fall in mean blood pressure (MBP) in millimeters of mercury (mm Hg). Compound-induced changes are compared with the changes in an appropriate placebo group.

[3] = target: T1, cGMP phosphodiesterase (cGMP-PDE) (Bos taurus, UniProt Q28156); assay: Inhibition of cGMP phosphodiesterase in vitro; format: biochemical, bovine; conditions: 1 μM 3H-cGMP, pH 7.5, 25 min, room temperature
T1 construct: is a homogeneous enzyme obtained from bovine lung; from tissue; host or cells: bovine lung

HSV-1 = conditions: cited from earlier work
HSV-2 = conditions: cited from earlier work
HeLa cells = assay: Compound toxicity assay: inhibition of HeLa cell translation (3H-leucine incorporation); format: cell-based; conditions: Homo sapiens, Table II^1, read-out: Cytoxicity 3H-LEU assay IC50
herpes virus = conditions: added to lidocaine or lidocaine hydrochloride; cited from earlier work
HSV-2, strain MS = assay: Prophylactic guinea pig model of HSV infection; format: in vivo; conditions: 60 mg/kg s.c. (test compounds) T.I.D., 10 days, first dose 24 h before infection; for MSL (Maximum Lesion score): scale of 1-4
Description: The in vivo assessment of anti-HSV efficacy was determined in the prophylactic guinea pig model of HSV infection described by Stansberry et al (1982). Dosing of guinea pigs comprised an initial treatment with test compound given 24 hours prior to virus infection and subsequent administration of the compound every eight hours (T.I.D.) for a total of 10 days. Test compounds were administered subcutaneously in 0.5% buffered methyl celluslose at a dose of 60 mg per kg body weight of the animal. Animals were monitored daily for the development of genital lesions and neurological symptomology, both of which were recorded and compared to the results obtained with parallel groups which received placebo or acyclovir treatment. Efficacy was evaluated for each compound by scoring the ability of the compound to ameliorate genital lesions produced by infection with HSV-2, strain MS, expressed as Maximum Lesion Scores (MLS) on a scale of 1 (least lesions) to 4 (severe lesions).

[4] = Human alphaherpesvirus 2, Table II^1, HeLa cells, HSV-2 strain MS, read-out: Anti-HSV activity HSV-β-Gal assay IC50

For CCOC(=O)c1c(OC)c2cc(C)ccc2n(Cc2ccccc2)c1=O [Compound 7, 1-benzyl-3-ethoxycarbonyl-4-methoxy-6-methyl-2(1H)-quinolinone], the IC50 (HSV-2 (strain MS); Human alphaherpesvirus 2, HeLa, read-out: Anti-HSV activity, HSV-β-GAL assay IC50) was 3 µg/mL (≈ 8.54 µM), the CC50 at 24 h [1] was 37 µg/mL (≈ 105 µM) and the “MBP (fall in mean blood pressure)” value ([2]; Table VII, at 25 mpk (P.O.)) was 0 mm Hg. The pIC50 ([3]; Table VII) was 5.10.

For CCN(CC)CC(=O)Nc1c(C)cccc1C [lidocaine, 2-(diethylamino)-N-(2,6-dimethylphenyl)acetamide], the “antiviral activity in cell culture” value (HSV-1) is given as “antiviral agent” and the “antiviral activity in cell culture” value (HSV-2) is given as “antiviral agent”.

For CCOC(=O)c1c(OCCN(C)C)c2cc(C)ccc2n(Cc2ccccc2)c1=O [Compound 27], the “MBP (fall in mean blood pressure)” value ([2]; 25 mpk p.o.) was 19 mm of Hg, the “MBP (fall in mean blood pressure)” value ([2]; 50 mpk p.o.) was 24 mm of Hg and the “MBP (fall in mean blood pressure)” value ([2]; 100 mpk p.o.) was 59 mm of Hg. The pIC50 ([3]; Table VI) was 5.40.

Compound Cc1c(OC(=O)c2cccn2C)ccc2c(N)cc(=O)oc12 [Compound 69, 4-Amino-7-(N-Methyl-Pyrrol-2-Carbonyloxy)-8-Methyl-Benzopyran-2-one] has an IC50 (HSV-2 (strain MS); [4]) of 9.8 µg/mL (≈ 32.9 µM) and an IC50 (HeLa cells) of 100 µg/mL (≈ 335 µM).

For CC(C)(CO)[C@@H](O)C(=O)NCCC(=O)O [pantothenic acid], the “enhancement of antiviral activity of lidocaine or lidocaine hydrochloride” value (herpes virus) is given as “significantly enhances”.

In the case of Nc1nc2c(ncn2COCCO)c(=O)[nH]1 [Acyclovir, 9-[(2-hydroxyethoxy)methyl]guanine, reference compound], the “Neurological dysfunction (percentage animals developing loss of bladder/hindlimb control)” value (HSV-2, strain MS) was 44% and the “MSL (Maximum Lesion score)” value (HSV-2, strain MS) was 1.61.

For Cc1c(OC(=O)c2ccc[nH]2)ccc2c(N)cc(=O)oc12 [Compound 70, 4-Amino-7-(Pyrrol-2-carbonyloxy)-8-Methyl-Benzopyran-2-one], the IC50 (HSV-2 (strain MS); [4]) was 15.5 µg/mL (≈ 54.5 µM) and the IC50 (HeLa cells) was 74 µg/mL (≈ 260 µM).

For CC(C)(CO)[C@@H](O)C(=O)NCCCO [dexpanthenol], the “enhancement of antiviral activity of lidocaine or lidocaine hydrochloride” value (herpes virus) is listed as “significantly enhances”.

Compound CCCCCCn1c(=O)c(C(=O)OCC)c(OC)c2cc(C)ccc21 [Compound 28, 1-hexyl-3-ethoxycarbonyl-4-methoxy-6-methyl-2(1H)-quinolinone] has a pIC50 ([3]; Table VI) of 5.52.

With CCCCCCn1c(=O)c(CO)c(OC)c2cc(C)ccc21 [Compound 9, 1-Hexyl-3-Hydroxymethyl-4-Methoxy-6-Methyl-2(1H)-Quinolinone] the IC50 (HSV-2 (strain MS); Human alphaherpesvirus 2, Table II, HeLa cells, HSV-2 strain MS, read-out: Anti-HSV activity, HSV-β-GAL assay IC50) was under 3 µg/mL, the CC50 at 24 h [1] was 25 µg/mL (≈ 82.4 µM) and the “Neurological dysfunction (percentage animals developing loss of bladder/hindlimb control)” value (HSV-2, strain MS) was 44%. For the same compound, the “MSL (Maximum Lesion score)” value (HSV-2, strain MS) was 1.44 and the pIC50 ([3]; Table VI) was 5.22.
